# Laboratory results as given in patent US9885044B2, “Polynucleotides and methods for inhibiting cancer cells” (Chang Gung Memorial Hospital, Linkou, priority 2015, dated 2018).
# Key:
# [1] = system: A549 lung cancer cells; experiment: Cell proliferation assay, xCELLigenece RTCA system, A549; format: cell-based; conditions: 25 and 50 uM
# Method: (§1) FIG. 9A is an assembly of Western blot images illustrating 25 and 50 uM of resveratrol reduced the expression of Puf-a in A549 lung cancer cells, HCT116 colon cancer cells, MB231 breast cancer cells and T98 glioblatoma cells. FIG. 9B is an assembly of graphs illustrating 25 and 50 uM of resveratrol was effective in reducing the proliferation of A549 lung cancer cells, HCT116 colon cancer cells, MB231 breast cancer cells and T98 glioblatoma cells.
# (§2) An in vitro evaluation of the effect of Resveratrol on the expression level of Puf-a protein and cell proliferation in various cancer cells was examined. The following cancer cells were treated with 0, 25 or 50 uM of Resveratrol (commercially available from Sigma, USA): A549 lung cancer cells (p53 proficient), HCT116 colon cancer cells (p53 proficient), MB231 breast cancer cells (p53 deficient) and T98 glioblatoma cells (p53 deficient). The expression of Puf-A protein in these cancer cells was analyzed by western blot and the cell proliferation was measured with a cell proliferation assay performed with xCELLigenece RTCA system (ACEA Biosciences Inc, USA). FIG. 9A is an assembly of Western blot images illustrating 25 and 50 uM of resveratrol reduced the expression of Puf-A in A549 lung cancer cells, HCT116 colon cancer cells, MB231 breast cancer cells and T98 glioblatoma cells. […]
# [2] = system: T98 glioblatoma cells; experiment: Cell proliferation assay, xCELLigenece RTCA system, T98; format: cell-based; conditions: 25 and 50 uM
# Method: as §1, §2
# [3] = system: HCT116 colon cancer cells; experiment: Cell proliferation assay, xCELLigenece RTCA system, HCT116; format: cell-based; conditions: 25 and 50 uM
# Method: as §1, §2
# [4] = system: Puf-A protein; experiment: Effect of resveratrol on Puf-A protein expression (Western blot); format: cell-based; conditions: 25 and 50 uM
# Method: as §1
# An in vitro evaluation of the effect of Resveratrol on the expression level of Puf-a protein and cell proliferation in various cancer cells was examined. The following cancer cells were treated with 0, 25 or 50 uM of Resveratrol (commercially available from Sigma, USA): A549 lung cancer cells (p53 proficient), HCT116 colon cancer cells (p53 proficient), MB231 breast cancer cells (p53 deficient) and T98 glioblatoma cells (p53 deficient). The expression of Puf-A protein in these cancer cells was analyzed by western blot and the cell proliferation was measured with a cell proliferation assay performed with xCELLigenece RTCA system (ACEA Biosciences Inc, USA). FIG. 9A is an assembly of Western blot images illustrating 25 and 50 uM of resveratrol reduced the expression of Puf-A in A549 lung cancer cells, HCT116 colon cancer cells, MB231 breast cancer cells and T98 glioblatoma cells. FIG. 9B is an assembly of graphs illustrating 25 and 50 uM of resveratrol reduced the proliferation of A549 lung cancer cells, HCT116 colon cancer cells, MB231 breast cancer cells and T98 glioblatoma cells compare to the control group (no resveratrol).
# [5] = system: MB231 breast cancer cells; experiment: Cell proliferation assay, xCELLigenece RTCA system, MB231; format: cell-based; conditions: 25 and 50 uM
# Method: as §1, §2
# [6] = system: p53-deficient and P53-proficient cancer cells; experiment: Proliferation rate of cancer cells after shPuf-A transduction; format: cell-based; conditions: p53-deficient and P53-proficient cancer cells (FIG. 7F)
# From the text: (§3) FIG. 7A is an assembly of images showing the effect of control shRNA, shPuf-A-1 and Puf-A-2 on Puf-A expression and cleaved form of PARP1, by transducing control shRNA, shPuf-A-1 and Puf-A-2 into the following p53-deficient and p53-proficient cell lines: A549, H460, U87, HCT116, H1299, CL1-5, MB231, LN229 and T98. FIG. 7B is a series of flow cytometry (FACS) images, illustrating the cell-cycle of Puf-A depleted (shPuf-A transduced) p53 proficient (p53 wild type) and p53 deficient (p53 defective) cancer cell lines. FIG. 7C is a series of Western blot images showing the effect shPuf-A-1 transduction on the expression of Puf-A, LC3 (marker for autophagosome), LAMP2 (marker for lysosome) and p62 (an autophagy substrate) in p53^+/+HCT116, p53^−/−HCT116, and p53^−/−H1299 cancer cell lines. FIG. 7D is a Western Blot image illustrating the effect of suppressing p53 and Puf-A in p53-proficient cells (H460). FIG. 7E is a series of immunofluorescence images illustrating the effect of silencing Puf-A, by shPuf-A-1 transduction, on LC3 (green), Lamp1 (red) and DAPI (blue) expression in p53 proficient (p53^+/+) HCT116, P53 deficient (p53^−/−) HCT116 and H1299 cancer cells. FIG. 7F is a series of graphs illustrating reduced proliferation rate of p53^−/− HCT116 and H1299 cells after shPuf-A-1 and shPuf-A-2 transduction compared to control shRNA transduction. […]
# [7] = system: Puf-A RNA; experiment: Puf-A knockdown by shRNA lentivirus vectors, RT-PCR and Q-PCR; format: cell-based, human; conditions: for knockdown efficiency on Puf-A expression compared to control shRNA: HCT116 and H1299 cells, Q-PCR (FIG. 6D); for expression level of Puf-A RNA compared to control shRNA: p53-proficient (p53+/+ HCT116) and p53-deficient (p53−/− HCT116, p53−/− H1299) cells, GAPDH internal control
# Method: FIG. 6A show the nucleotide sequence of human Puf-A gene (SEQ ID NO:1). […] FIG. 6C and FIG. 6D illustrate the Puf-A knockdown efficiency of control shRNA, shPuf-A-1 and shPuf-A-2 in colorectal cancer cells (HCT116) and lung cancer cells (H1299), determined by RT-PCR and Q-PCR analyses.
# The effect of the shRNAs constructs in FIG. 6B on Puf-A expression was evaluated using p53-proficient (p53^+/+ HCT116) and p53-deficient (p53^−/− HCT116 and p53^−/− H1299). The cells were transduced with control shRNA, shPuf-A-1 and shPuf-A-2 lentivirus vectors and Puf-A expression was determined by […] and Q-PCR. […] The knockdown efficiencies of shPuf-A-1 and shPuf-A-2 on Puf-A expression were approximately 90% and 75%, respectively, compare to the control shRNA (FIG. 6D).
# [8] = system: LC3-II, LAMP2, p62; experiment: Autophagy markers after shPuf-A transduction (Western blot); format: cell-based; conditions: p53-proficient cells (p53+/+ HCT116)
# From the text: as §3
# [9] = system: Puf-A proteins; experiment: Puf-A protein expression after shPuf-A transduction of cancer cell lines (Western blot); format: cell-based; conditions: A549, H460, H1299, CL1-5, HCT116, MB231, U87, LN229, T98 cells
# From the text: as §3, with “cells.” for “cells. FIG. 7F is a series of graphs illustrating reduced proliferation rate of p53^−/− HCT116 and H1299 cells after shPuf-A-1 and shPuf-A-2 transduction compared to control shRNA transduction.”
# The biological function of Puf-A on cancer cells was assessed, using lung cancer cells (A549, H460, H1299 and CL1-5); colorectal cancer cells (HCT116); breast cancer cells (MB231) and glioblastoma cells (U87, LN229 and T98).
# [10] = system: p53 and p21; experiment: p53 and p21 protein/RNA expression in p53 proficient cancer cells after Puf-A suppression; format: cell-based; conditions: A549, H460 or HCT116 p53 proficient cells
# From the text: FIG. 8A is a series of Western blot, RT-PCR and Q-PCR images, illustrating shPuf-A1 and shPuf-A2 transduction increases the expression of p53 and p21 and reduces transcripts of PUF-A in the following p53-proficient (p53^+/+) cancer cell lines: A549, H460, and HCT116. FIG. 8B is a series of immunostaining images illustrating the expression of p53 (red) and DAPI (blue, internal control) in p53-proficient (p53^+/+) cancer cell lines A549, H460 and HCT116 cells and P53 deficient (p53^−/−) HCT116 cancer cells after control shRNA and shPuf-A-1 transduction. FIG. 8C is a series of bar graphs illustrating the FACS analyzed cell-cycles of Puf-A depleted cancer cells, A549, H460 and HCT116, with different p53 genotypes.
# The effect of Puf-A suppression on the expression level of p53 and p21 protein/RNA in p53 proficient cancer cells was examined, by infecting A549, H460 or HCT116 cancer cells with shPuf-A-1, shPuf-A-2 or control shRNA viral vectors. […] Cell-cycle progression of the same cancer cell lines was analyzed by FACS.
# [11] = system: LC3-II, LAMP1; experiment: Immunofluorescence staining of LC3-II and LAMP1 after shPuf-A-1 transduction; format: cell-based
# From the text: FIG. 7A is an assembly of images showing the effect of control shRNA, shPuf-A-1 and Puf-A-2 on Puf-A expression and cleaved form of PARP1, by transducing control shRNA, shPuf-A-1 and Puf-A-2 into the following p53-deficient and p53-proficient cell lines: A549, H460, U87, HCT116, H1299, CL1-5, MB231, LN229 and T98. FIG. 7B is a series of flow cytometry (FACS) images, illustrating the cell-cycle of Puf-A depleted (shPuf-A transduced) p53 proficient (p53 wild type) and p53 deficient (p53 defective) cancer cell lines. FIG. 7C is a series of Western blot images showing the effect shPuf-A-1 transduction on the expression of Puf-A, LC3 (marker for autophagosome), LAMP2 (marker for lysosome) and p62 (an autophagy substrate) in p53^+/+HCT116, p53^−/−HCT116, and p53^−/−H1299 cancer cell lines. FIG. 7D is a Western Blot image illustrating the effect of suppressing p53 and Puf-A in p53-proficient cells (H460). FIG. 7E is a series of immunofluorescence images illustrating the effect of silencing Puf-A, by shPuf-A-1 transduction, on LC3 (green), Lamp1 (red) and DAPI (blue) expression in p53 proficient (p53^+/+) HCT116, P53 deficient (p53^−/−) HCT116 and H1299 cancer cells. FIG. 7F is a series of graphs illustrating reduced proliferation rate of p53^−/− HCT116 and H1299 cells after shPuf-A-1 and shPuf-A-2 transduction compared to control shRNA transduction.
# [12] = system: Puf-A; experiment: Effect of small molecules blocking downstream effectors of Kras pathway on Puf-A expression (Western blot); format: cell-based; conditions: H460 and HCT116 cancer cells
# From the text: FIG. 3C is a series of bar graphs showing Puf-A promoter activity in Kras^G12D or c-Myc transfected cells, determined by dual-luciferase reporter assay. FIG. 3D illustrates the binding of c-Myc protein to exon 1 of Puf-A locus in H1299 and HCT116 cells. […] FIG. 3F is an assembly of the Western blot images illustrating the effect of Raf inhibitor (Raf (i)), MEK1 inhibitor (PD98059) and MEK1/2 inhibitor (U0126) on the expression of Puf-A, phosphorylated ERK1/2, total ERK1/2 and β-actin in H460 (Kras ^Q61H) and HCT116 (Kras^G13D) cancer cells.
# The effect of various small molecules (such as Raf(i), PD98059 and UO126), which block the downstream effectors of Kras pathway (such as Rafs, MEK1 and MEK2), was assessed in H460 and HCT116 cancer cells.
# [13] = system: adenoma-bearing LSL-Kras^G12D/p53^flox mice; experiment: In vivo evaluation of Puf-A suppression in tumourigenesis (intranasal lentiviral shRNA); conditions: lentiviral vector intranasally twice a week for two weeks; sacrificed 6 weeks after Kras^G12D activation and p53 deletion
# From the text: FIG. 5A schematically illustrates the in vivo study design of Puf-A shRNA delivery to knock down Puf-A. FIG. 5B is an assembly of microscopic images illustrating the number of tumor foci in mice administered with of control shRNA or Puf-A shRNA. FIG. 5C is a series of bar graphs illustrating the counted numbers of tumor foci (>250 μm) in mice with adenocarcinoma (left bar graph) and adenoma (right bar graph), after the administration of control or Puf-A-2 shRNA.
# An in vivo evaluation of Puf-A suppression in tumourigenesis was performed using LSL-Kras^G12D1p53^flox mice.
# FIG. 5A schematically illustrates the study design. LSL-Kras^G12D/p53^flox mice developed adenoma after 2 weeks of Kras^G12D activation and p53 deletion. Lentiviral vector, expressing shPuf-A-2 (a Puf-A shRNA) or control shRNA, was intranasally delivered to adenoma-bearing LSL-Kras^G12D/p53^flox mice twice a week for two weeks. The mice were sacrificed 6 weeks after Kras^G12D activation and p53 deletion.
Compound,proliferation rate compared to control shRNA virus [6],knockdown efficiency on Puf-A expression compared to control shRNA [7],expression level of Puf-A RNA compared to control shRNA [7],level of LC3-II expression [8],expression level of Puf-A proteins compared to control shRNA [9],expression level of p21 protein or RNA compared to control shRNA [10],expression level of p53 protein or RNA compared to control shRNA [10],also measured
Oc1ccc(C=Cc2cc(O)cc(O)c2)cc1 [resveratrol],–,–,–,–,–,–,–,proliferation compared to control group (no resveratrol) [1]: reduced; proliferation compared to control group (no resveratrol) [2]: reduced; proliferation compared to control group (no resveratrol) [3]: reduced; expression of Puf-A ([4]; A549 lung cancer cells (p53 proficient)): reduced; expression of Puf-A ([4]; HCT116 colon cancer cells (p53 proficient)): reduced; expression of Puf-A ([4]; MB231 breast cancer cells (p53 deficient)): reduced; expression of Puf-A ([4]; T98 glioblatoma cells (p53 deficient)): reduced; proliferation compared to control group (no resveratrol) [5]: reduced
"shPuf-A-1: novel short hairpin RNA targeting Puf-A, encoded by SEQ ID NO:2, delivered by lentivirus vector (DNA CCGGGCCTAGCATAGTAAATGACAACTCGAGTTGTCATTTACTATGCTAGGCTTTTTTG)",reduced,approximately 90%,significantly reduced,slight increase,significantly reduced,significantly increased,significantly increased,expression and co-localization of LC3-II and LAMP1 ([11]; p53-deficient cancer cells): increase expression and co-localization; LAMP1 around the nuclei ([11]; p53-proficient cancer cells): slight increase
COc1cccc(-c2cc(=O)c3ccccc3o2)c1N [PD98059],–,–,–,–,–,–,–,expression levels of Puf-A [12]: reduced
"shPuf-A-2: novel short hairpin RNA targeting Puf-A, encoded by SEQ ID NO:3, delivered by lentivirus vector (DNA CCGGCGTGTGATCCAGTGTTACATTCTCGAGAATGTAACACTGGATCACACGTTTTTG)",reduced,~75%,significantly reduced,slight increase,significantly reduced,significantly increased,significantly increased,reduction of number of adenocarcinoma focus (>250 μm) vs control shRNA vector [13]: 15.4 fold; reduction of number of adenoma focus (>250 μm) vs control shRNA vector [13]: 2.6 fold
